Measurements taken from patent US20240132431A1, “METHOD FOR ALKYLATING ACIDIC FUNCTIONAL GROUP” (Chugai Seiyaku Kabushiki Kaisha, priority 2021, published 2024).

Target: T1, Bcl-2 protein (Recombinant Human Bcl-2 Protein) (Homo sapiens, UniProt P10415)
T1 construct: purchased Novus NBP2-34889
Test: Binding evaluation of mixture library compounds to Bcl-2 using AS-MS (affinity selection mass spectrometry)
Details: AS-MS, mixture of 1200 compounds, Bcl-2, ASMS Ratio(%)=(A−C)/B×100; for ASMS ratio (%) n = 1: replicate n = 1; for ASMS ratio (%) n = 2: replicate n = 2
How it was run: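 Readout is ASMS Ratio (%), (A−C)/B×100, from reversed-phase LC/MS of SEC-passed extracts, with protein-free unfiltered standard (B) and protein-free SEC blank (C). Recombinant human Bcl-2 at 20 μM final met ~1200 pooled compounds at […] each for 1 h, 23° C., dark, in Tris-HCl pH 7.4 buffer.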

T1 sequence (P10415 whole entry): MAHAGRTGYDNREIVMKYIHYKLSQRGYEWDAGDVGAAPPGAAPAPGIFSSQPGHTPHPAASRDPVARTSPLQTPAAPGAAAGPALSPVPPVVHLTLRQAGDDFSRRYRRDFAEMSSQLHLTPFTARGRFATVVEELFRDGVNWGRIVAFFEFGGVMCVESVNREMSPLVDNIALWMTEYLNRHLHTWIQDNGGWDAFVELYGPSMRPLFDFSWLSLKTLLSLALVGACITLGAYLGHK

Row | ASMS ratio (%) n = 1 | ASMS ratio (%) n = 2 | SMILES
1 | 12.1% | −4.6% | CCOc1cncc(-c2cc(C(=O)N3CCN(c4ccc(C(=O)NCC56CC7CC(CC(C7)C5)C6)nn4)CC3)cc(C(C)(C)C)c2)c1 [B1A016-01, N-(1-Adamantylmethyl)-6-[4-[3-tert-butyl-5-(5-ethoxypyridin-3-yl)benzoyl]piperazin-1-yl]pyridazine-3-carboxamide]
2 | 5.4% | 5.4% | CCOc1cccc(-c2cc(C(=O)N3CCN(c4ccc(C(=O)NCC56CC7CC(CC(C7)C5)C6)nn4)CC3)cc(C(F)(F)F)c2)c1 [B1A017-01, N-(1-Adamantylmethyl)-6-[4-[3-(3-ethoxyphenyl)-5-(trifluoromethyl)benzoyl]piperazin-1-yl]pyridazine-3-carboxamide]
3 | −6.5% | 9.9% | CCOc1cncc(-c2cc(C(=O)N3CCN(c4ccc(C(=O)NCC56CC7CC(CC(C7)C5)C6)nn4)CC3)cc(C(F)(F)F)c2)c1 [B1A018-01, N-(1-Adamantylmethyl)-6-[4-[3-(5-ethoxypyridin-3-yl)-5-(trifluoromethyl)benzoyl]piperazin-1-yl]pyridazine-3-carboxamide]
4 | −3.9% | −7.5% | CCOc1cccc(C#Cc2cc(C(=O)N3CCN(c4ccc(C(=O)NCC56CC7CC(CC(C7)C5)C6)nn4)CC3)cc(C(F)(F)F)c2)c1 [B1A019-01, N-(1-Adamantylmethyl)-6-[4-[3-[2-(3-ethoxyphenyl)ethynyl]-5-(trifluoromethyl)benzoyl]piperazin-1-yl]pyridazine-3-carboxamide]
5 | −4.3% | −10.5% | CCOc1cncc(C#Cc2cc(C(=O)N3CCN(c4ccc(C(=O)NCC56CC7CC(CC(C7)C5)C6)nn4)CC3)cc(C(F)(F)F)c2)c1 [B1A020-01, N-(1-Adamantylmethyl)-6-[4-[3-[2-(5-ethoxypyridin-3-yl)ethynyl]-5-(trifluoromethyl)benzoyl]piperazin-1-yl]pyridazine-3-carboxamide]
6 | −1.3% | −3.7% | CCOc1cccc(-c2cnn(-c3cc(C(=O)N4CCN(c5ccc(C(=O)NCC67CC8CC(CC(C8)C6)C7)nn5)CC4)cc(C(F)(F)F)c3)c2)c1 [B1A021-01, N-(1-Adamantylmethyl)-6-[4-[3-[4-(3-ethoxyphenyl)pyrazol-1-yl]-5-(trifluoromethyl)benzoyl]piperazin-1-yl]pyridazine-3-carboxamide]
7 | 8.0% | 7.7% | CCOc1cncc(-c2cnn(-c3cc(C(=O)N4CCN(c5ccc(C(=O)NCC67CC8CC(CC(C8)C6)C7)nn5)CC4)cc(C(F)(F)F)c3)c2)c1 [B1A022-01, N-(1-Adamantylmethyl)-6-[4-[3-[4-(5-ethoxypyridin-3-yl)pyrazol-1-yl]-5-(trifluoromethyl)benzoyl]piperazin-1-yl]pyridazine-3-carboxamide]
8 | 4.0% | 0.8% | CCOc1cccc(-c2csc(C(=O)N3CCN(c4ccc(C(=O)NCC56CC7CC(CC(C7)C5)C6)cc4)CC3)c2)c1 [B1A023-01, N-(1-Adamantylmethyl)-4-[4-[4-(3-ethoxyphenyl)thiophene-2-carbonyl]piperazin-1-yl]benzamide]
9 | 4.1% | 1.2% | CCOc1cncc(-c2csc(C(=O)N3CCN(c4ccc(C(=O)NCC56CC7CC(CC(C7)C5)C6)cc4)CC3)c2)c1 [B1A024-01, N-(1-Adamantylmethyl)-4-[4-[4-(5-ethoxypyridin-3-yl)thiophene-2-carbonyl]piperazin-1-yl]benzamide]
10 | 7.4% | −16.1% | CCOc1cccc(-c2ccc(C(=O)N3CCN(c4ccc(C(=O)NCC56CC7CC(CC(C7)C5)C6)cc4)CC3)cc2C)c1 [B1A025-01, N-(1-Adamantylmethyl)-4-[4-[4-(3-ethoxyphenyl)-3-methylbenzoyl]piperazin-1-yl]benzamide]
11 | 3.0% | −2.9% | CCOc1cncc(-c2ccc(C(=O)N3CCN(c4ccc(C(=O)NCC56CC7CC(CC(C7)C5)C6)cc4)CC3)cc2C)c1 [B1A026-01, N-(1-Adamantylmethyl)-4-[4-[4-(5-ethoxypyridin-3-yl)-3-methylbenzoyl]piperazin-1-yl]benzamide]
12 | 6.7% | −7.8% | CCOc1cccc(-c2ccc(C(=O)N3CCN(c4ccc(C(=O)NCC56CC7CC(CC(C7)C5)C6)cc4)CC3)cc2F)c1 [B1A027-01, N-(1-Adamantylmethyl)-4-[4-[4-(3-ethoxyphenyl)-3-fluorobenzoyl]piperazin-1-yl]benzamide]
13 | −1.6% | −4.7% | CCOc1cncc(-c2ccc(C(=O)N3CCN(c4ccc(C(=O)NCC56CC7CC(CC(C7)C5)C6)cc4)CC3)cc2F)c1 [B1A028-01, N-(1-Adamantylmethyl)-4-[4-[4-(5-ethoxypyridin-3-yl)-3-fluorobenzoyl]piperazin-1-yl]benzamide]
14 | −22.3% | −13.0% | CCOc1cccc(C#Cc2ccccc2C(=O)N2CCN(c3ccc(C(=O)NCC45CC6CC(CC(C6)C4)C5)cc3)CC2)c1 [B1A029-01, N-(1-Adamantylmethyl)-4-[4-[2-[2-(3-ethoxyphenyl)ethynyl]benzoyl]piperazin-1-yl]benzamide]
15 | 6.9% | −1.8% | CCOc1cncc(C#Cc2ccccc2C(=O)N2CCN(c3ccc(C(=O)NCC45CC6CC(CC(C6)C4)C5)cc3)CC2)c1 [B1A030-01, N-(1-Adamantylmethyl)-4-[4-[2-[2-(5-ethoxypyridin-3-yl)ethynyl]benzoyl]piperazin-1-yl]benzamide]
16 | 6.9% | −1.8% | CCOc1cccc(C#Cc2cncc(C(=O)N3CCN(c4ccc(C(=O)NCC56CC7CC(CC(C7)C5)C6)cc4)CC3)c2)c1 [B1A031-01, N-(1-Adamantylmethyl)-4-[4-[5-[2-(3-ethoxyphenyl)ethynyl]pyridine-3-carbonyl]piperazin-1-yl]benzamide]
17 | 0.0% | −9.1% | CCOc1cncc(C#Cc2cncc(C(=O)N3CCN(c4ccc(C(=O)NCC56CC7CC(CC(C7)C5)C6)cc4)CC3)c2)c1 [B1A032-01, N-(1-Adamantylmethyl)-4-[4-[5-[2-(5-ethoxypyridin-3-yl)ethynyl]pyridine-3-carbonyl]piperazin-1-yl]benzamide]
18 | 3.3% | −13.3% | CCOc1cccc(-c2ccccc2CCC(=O)N2CCN(c3ccc(C(=O)NCC45CC6CC(CC(C6)C4)C5)cc3)CC2)c1 [B1A033-01, N-(1-Adamantylmethyl)-4-[4-[3-[2-(3-ethoxyphenyl)phenyl]propanoyl]piperazin-1-yl]benzamide]
19 | 5.2% | −3.2% | CCOc1cncc(-c2ccccc2CCC(=O)N2CCN(c3ccc(C(=O)NCC45CC6CC(CC(C6)C4)C5)cc3)CC2)c1 [B1A034-01, N-(1-Adamantylmethyl)-4-[4-[3-[2-(5-ethoxypyridin-3-yl)phenyl]propanoyl]piperazin-1-yl]benzamide]
20 | 14.9% | −7.0% | CCOc1cccc(-c2ccc(C(=O)N3CCN(c4ccc(C(=O)NCC56CC7CC(CC(C7)C5)C6)cc4)CC3)c3ccccc23)c1 [B1A035-01, N-(1-Adamantylmethyl)-4-[4-[4-(3-ethoxyphenyl)naphthalene-1-carbonyl]piperazin-1-yl]benzamide]
